What was measured:
J774 [1] = experiment: Cytotoxicity against mouse macrophage J774 cells assessed as reduction in cell viability at 50 to 100 uM incubated for 72 hrs by MTT assay; assay type: toxicity, cell-based; details: j774, 72 h, dose 50-100 µM
J774 [2] = experiment: Cytotoxicity against mouse macrophage J774 cells assessed as reduction in cell viability at 6.25 to 25 uM incubated for 72 hrs by MTT assay; assay type: toxicity, cell-based; details: j774, 72 h, dose 6.25-25 µM
Leishmania donovani [3] = experiment: Antileishmanial activity against Leishmania donovani MHOM/IN/80/Dd8 promastigotes harboring luciferase gene infected in mouse J774 cells assessed as inhibition of parasite viability at 25 uM incubated for 72 hrs by Steady-Glo reagent based luciferase assay relative to control; assay type: functional; details: MHOM/IN/80/Dd8, J774
Leishmania donovani [4] = experiment: Antileishmanial activity against Leishmania donovani MHOM/IN/80/Dd8 amastigotes harboring luciferase gene infected in mouse J774 cells assessed as inhibition of parasite viability at 25 uM incubated for 72 hrs by Steady-Glo reagent based luciferase assay relative to control; assay type: functional; details: MHOM/IN/80/Dd8, J774
Leishmania donovani [5] = experiment: Antileishmanial activity against Leishmania donovani MHOM/IN/80/Dd8 amastigotes harboring luciferase gene infected in mouse J774 cells assessed as inhibition of parasite viability incubated for 72 hrs by Steady-Glo reagent based luciferase assay relative to control; assay type: functional, organism-based; details: MHOM/IN/80/Dd8, J774, 72 h
Leishmania donovani [6] = experiment: Antileishmanial activity against Leishmania donovani MHOM/IN/80/Dd8 promastigotes harboring luciferase gene infected in mouse J774 cells assessed as inhibition of parasite viability incubated for 72 hrs by Steady-Glo reagent based luciferase assay relative to control; assay type: functional, organism-based; details: MHOM/IN/80/Dd8, J774, 72 h
[7] = Cytotoxicity against mouse macrophage J774 cells assessed as inhibition of cell viability incubated for 72 hrs by MTT assay; assay type: toxicity, cell-based
[8] = Cytotoxicity against human HepG2 cells assessed as inhibition of cell viability incubated for 72 hrs by MTT assay; assay type: toxicity, cell-based
[9] = Selectivity index, ratio of CC50 for cytotoxicity against mouse macrophage J774 cells to IC50 for antileishmanial activity against Leishmania donovani MHOM/IN/80/Dd8 amastigotes harboring luciferase gene infected in mouse J774 cells; assay type: toxicity, cell-based; details: read-out: Ratio CC50/IC50
[10] = Selectivity index, ratio of CC50 for cytotoxicity against human HepG2 cells to IC50 for antileishmanial activity against Leishmania donovani MHOM/IN/80/Dd8 amastigotes harboring luciferase gene infected in mouse J774 cells; assay type: toxicity, cell-based; details: read-out: Ratio CC50/IC50
Leishmania donovani [11] = experiment: Antileishmanial activity against Leishmania donovani MHOM/IN/80/Dd8 promastigotes infected in Balb/c mouse assessed as inhibition organ parasite burden in liver at 25 mg/kg, ip for 7 days by Giemsa staining based microscopy; assay type: functional; details: MHOM/IN/80/Dd8, 168 h, time 7 day
Leishmania donovani [12] = experiment: Antileishmanial activity against Leishmania donovani MHOM/IN/80/Dd8 promastigotes infected in Balb/c mouse assessed as inhibition organ parasite burden in spleen at 25 mg/kg, ip for 7 days by Giemsa staining based microscopy; assay type: functional; details: MHOM/IN/80/Dd8, 168 h, time 7 day
Leishmania mexicana = experiment: Antileishmanial activity against Leishmania mexicana 227 assessed as inhibition of parasite viability; assay type: functional, organism-based

Structure (SMILES) | Activity (J774 [1]) | Activity (J774 [2]) | inhibition at 25 µM (Leishmania donovani [3]) [%] | inhibition at 25 µM (Leishmania donovani [4]) [%] | further results
COc1ccc2nc3c(c(-c4ccccc4)c2c1)C1=NC(=O)C2(CCCC2)N1C3 | >= 30% | Non-Toxic | 39 | 31 | 
COc1ccc2nc3c(c(-c4ccccc4)c2c1)C(=O)N(C(C)(C)C(=O)NC(C)(C)C)C3 | >= 30% | Non-Toxic | 40 | 45 | 
COc1ccc2nc3c(c(-c4ccccc4)c2c1)C(=O)N(C1(C(=O)NC(C)(C)C)CCCC1)C3 | >= 30% | Non-Toxic | 40 | 45 | 
COc1ccc2nc3c(c(-c4ccccc4)c2c1)C1=NC(=O)C(c2ccccc2)N1C3 (stereo unspecified) | >= 30% | Non-Toxic | 39 | 31 | 
CC(C)(C(N)=O)N1Cc2nc3ccc(Cl)cc3c(-c3ccccc3)c2C1=O | >= 30% | Non-Toxic | 61 | 46 | 
CC(C)(C)NC(=O)C(c1ccc(F)cc1)N1Cc2nc3ccc(O)cc3c(-c3ccccc3)c2C1=O (stereo unspecified) | >= 30% | Non-Toxic | 72.7 | 69 | 
COc1ccc2nc3c(c(-c4ccccc4)c2c1)C1=NC(=O)C(c2ccc(C#N)cc2)N1C3 (stereo unspecified) | >= 30% | Non-Toxic | 39 | 31 | 
COc1ccc2nc3c(c(-c4ccccc4)c2c1)C1=NC(=O)C(c2ccc(Br)cc2)N1C3 (stereo unspecified) | >= 30% | Non-Toxic | 39 | 31 | 
COc1ccc2nc3c(c(-c4ccccc4)c2c1)C(=O)N(C(C(N)=O)c1ccc(F)cc1)C3 (stereo unspecified) | >= 30% | Non-Toxic | 61 | 46 | IC50 (Leishmania donovani [5]): 8.75 µM
COc1ccc2nc3c(c(-c4ccccc4)c2c1)C(=O)N(C(C(=O)NC(C)(C)C)c1cc(OC)c(OC)c(OC)c1)C3 (stereo unspecified) | >= 30% | Non-Toxic | 40 | 45 | 
CCCCCCCCCCCCCCCCOP(=O)([O-])OCC[N+](C)(C)C [MILTEFOSINE] |  |  |  |  | IC50 (Leishmania donovani [5]): 6.86 µM; IC50 (Leishmania donovani [6]): 6.12 µM; CC50 at 72 h [7]: 72.4 µM; CC50 at 72 h [8]: 78.6 µM; selectivity ratio [9]: 11.8; selectivity ratio [10]: 12.8; inhibition in vivo at 25 mg/kg (Leishmania donovani [11]): 97.4%; inhibition in vivo at 25 mg/kg (Leishmania donovani [12]): 98.9%
COc1ccc2nc3c(c(-c4ccccc4)c2c1)C(=O)N(C(C(=O)NC(C)(C)C)c1ccccc1)C3 (stereo unspecified) | >= 30% | Non-Toxic | > 70 | 45 | 
CC(C)(C)NC(=O)C(C)(C)N1Cc2nc3ccccc3c(-c3ccccc3)c2C1=O | >= 30% | Non-Toxic | 40 | 45 | 
COc1ccc2nc3c(c(-c4ccccc4)c2c1)C(=O)N(C1(C(=O)NC(C)(C)C)CCCCC1)C3 | >= 30% | Non-Toxic | > 70 | 45 | IC50 (Leishmania donovani [5]): 5.35 µM
COc1ccc2nc3c(c(-c4ccccc4)c2c1)C1=NC(=O)C(C)(C)N1C3 | >= 30% | Non-Toxic | 39 | 31 | 
COc1ccc2nc3c(c(-c4ccccc4)c2c1)C1=NC(=O)C(c2ccc(Cl)cc2)N1C3 (stereo unspecified) | >= 30% | Non-Toxic | 39 | 31 | 

Structure (SMILES) | Activity (J774 [1]) | Activity (J774 [2]) | inhibition at 25 µM (Leishmania donovani [3]) [%] | inhibition at 25 µM (Leishmania donovani [4]) [%] | further results
CCCCCCOc1c(OC)cc(NC(C)CCCN)c2nccc(C)c12 (stereo unspecified) [WR-242511] |  |  |  |  | IC50 (Leishmania mexicana): 2.5 µM
CC(C)(C(N)=O)N1Cc2nc3ccccc3c(-c3ccccc3)c2C1=O | >= 30% | Non-Toxic | 61 | 46 | 
CC1(C)C(=O)N=C2c3c(nc4ccc(Br)cc4c3-c3ccccc3)CN21 | >= 30% | Non-Toxic | 39 | 31 | 
COc1ccc2nc3c(c(-c4ccccc4)c2c1)C1=NC(=O)C2(CCCCC2)N1C3 | >= 30% | Non-Toxic | 39 | 31 | 
COc1ccc2nc3c(c(-c4ccccc4)c2c1)C(=O)N(C(C(=O)NC(C)(C)C)c1ccc(Cl)cc1)C3 (stereo unspecified) | >= 30% | Non-Toxic | 40 | 45 | IC50 (Leishmania donovani [5]): 10.5 µM
COc1ccc2nc3c(c(-c4ccccc4)c2c1)C(=O)N(C(C(=O)NC(C)(C)C)c1ccc(C(F)(F)F)cc1)C3 (stereo unspecified) | >= 30% | Non-Toxic | > 70 | 45 | 
COc1ccc(C(C(=O)NC(C)(C)C)N2Cc3nc4ccc(OC)cc4c(-c4ccccc4)c3C2=O)cc1 (stereo unspecified) | >= 30% | Non-Toxic | 40 | 45 | 
COc1ccc2nc3c(c(-c4ccccc4)c2c1)C1=NC(=O)C(c2cc(OC)c(OC)c(OC)c2)N1C3 (stereo unspecified) | >= 30% | Non-Toxic | 39 | 31 | 
CC(C)(C)NC(=O)C(C)(C)N1Cc2nc3ccc(O)cc3c(-c3ccccc3)c2C1=O | >= 30% | Non-Toxic | 77.2 | 69 | 
CC(C)(C)NC(=O)C(C)(C)N1Cc2nc3ccc(Br)cc3c(-c3ccccc3)c2C1=O | >= 30% | Non-Toxic | > 70 | 45 | IC50 (Leishmania donovani [5]): 10.3 µM
COc1ccc2nc3c(c(C)c2c1)C(=O)N(C(C)(C)C(=O)NC(C)(C)C)C3 | >= 30% | Non-Toxic | > 70 | 45 | IC50 (Leishmania donovani [5]): 7.42 µM
COc1ccc2nc3c(c(-c4ccccc4)c2c1)C(=O)N(C(C(=O)NC(C)(C)C)c1ccc(C#N)cc1)C3 (stereo unspecified) | >= 30% | Non-Toxic | 40 | 45 | 
COc1ccc2nc3c(c(-c4ccccc4)c2c1)C(=O)N(C(C(=O)NC(C)(C)C)c1ccc(O)cc1)C3 (stereo unspecified) | >= 30% | Non-Toxic | 40 | 45 | 
COc1ccc2nc3c(c(-c4ccccc4)c2c1)C(=O)N(CC(=O)NC(C)(C)C)C3 | >= 30% | Non-Toxic | 40 | 45 | IC50 (Leishmania donovani [5]): 8.39 µM
COc1ccc2nc3c(c(-c4ccccc4)c2c1)C(=O)N(C(C(=O)NC(C)(C)C)c1ccc(F)cc1)C3 (stereo unspecified) | >= 30% | Non-Toxic | 40 | 45 | 

Reference: ChEMBL document CHEMBL5104126, “Discovery of 2,3-dihydro-1H-pyrrolo[3,4-b]quinolin-1-one derivatives as possible antileishmanial agents” (RSC Med Chem, 2022)
